Key:
[1] = tested on: protein phosphorylation in PC3-M and PC3 cells; assay: KinomeView phospho-motif antibody screen; assay type: cell-based, human; conditions: 10 μM, 3 days, ±TGFβ
Excerpt: Seeking to identify KBU2046's biological target(s), alternative methods were pursued. The KinomeView® panel of antibodies (Cell Signaling Technology, Inc.) detect established protein phosphorylation motifs, and were used to probe for KBU2046-induced changes in protein phosphorylation (FIG. 4a and FIG. 17). Phosphoprotein changes that met the following criteria were prioritized: were induced in cells in vitro as well as in tumors of treated mice (from FIG. 2a), that counteracted transforming growth factor β (TGFβ)-induced effects, and that were reproducible. TGFβ is ubiquitous in vivo, is known to increase PCa cell invasion (Huang, X. et al., Cancer Research 65, 3470-8 (2005)), and KBU2046's anti-invasion efficacy remains in spite of TGFβ-stimulated increases in cell invasion (FIG. 18). Genistein was evaluated under identical treatment conditions for comparison. […] In tumors of treated animals KBU2046 had this same effect on this 83 kDa protein band (green arrow in FIG. 17a). The high molecular selectivity of KBU2046 was further supported by its failure to inhibit over 400 different protein kinases and 20 phosphatases examined, in three different in vitro assay systems (see, Example 1).
Phospho-proteomic Analysis. The Kinoview™ and PhosphoScan™ assays were performed by Cell Signaling Technology Inc. […]

MKK4 = biological target: T1, MKK4 (Homo sapiens, UniProt P45985, S257E/T261E); assay: MKK4 in vitro kinase assay; assay type: biochemical; conditions: phosphorylation of kinase dead p38a MAPK
T1 sequence (P45985 37-399 S257E/T261E): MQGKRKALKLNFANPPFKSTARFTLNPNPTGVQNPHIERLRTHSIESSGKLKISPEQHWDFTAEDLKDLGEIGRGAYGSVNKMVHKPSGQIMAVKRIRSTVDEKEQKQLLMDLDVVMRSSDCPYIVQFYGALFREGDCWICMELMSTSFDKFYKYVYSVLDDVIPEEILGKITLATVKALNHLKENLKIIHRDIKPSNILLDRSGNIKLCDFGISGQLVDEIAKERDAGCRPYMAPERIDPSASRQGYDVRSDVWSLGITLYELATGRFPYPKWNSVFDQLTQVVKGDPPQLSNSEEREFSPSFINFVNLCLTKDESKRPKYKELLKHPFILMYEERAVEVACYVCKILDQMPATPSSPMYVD
Method: FIG. 16a is a depiction of established MKK4 pathway regulating human PCa cell metastasis. […] Values are the mean±SD (of N=2 replicates) increase in melting temperature (ΔTm) of purified recombinant MKK4 induced by the indicated concentrations of KBU2046 or genistein. […] The indicated concentrations of KBU2046 were added to recombinant activated MKK4, and its ability to phosphorylate kinase dead p38a MAPK (K53A) was measured by Western blot for total (p38 MAPK) and phosphorylated (pp38 MAPK) forms of p38 MAPK. […] PC3-M cells were pre-treated for 24 hours with 50 μM KBU2046 or genistein, as indicated, then with TGFβ, and Western blot performed. These findings are from a single experiment, with similar findings in identical separate experiments, repeated at least once.
In Vitro Kinase Assays. MEK4/MKK4/MAP2K4 in vitro kinase assay was performed as described (Krishna, S. N. et al., PLoS One 8, e81504 (2013)). HSP90β/CDC37 heterocomplex kinase assays with RAF1, SGK3 and MAP3K6 assays incubated indicated proteins in 20 mM MOPS, pH 7.2, 25 mM β-glycerol phosphate, 5 mM EGTA, 1 mM sodium orthovanadate, 1 mM dithiothreitol, 0.25 mM ATP and 37.5 mM MgCl2 at 30° C. for the indicated times.

estrogen receptor (ER) = biological target: T2, estrogen receptor (ER) (Homo sapiens, UniProt P03372); assay: pERE-Luc estrogen receptor reporter assay in MCF-7 cells; assay type: cell-based; conditions: 24 hours, micromolar concentrations
T2 construct: estrogen receptor positive MCF-7 cells; endogenous in cells; host or cells: MCF-7
T2 sequence (P03372 whole entry): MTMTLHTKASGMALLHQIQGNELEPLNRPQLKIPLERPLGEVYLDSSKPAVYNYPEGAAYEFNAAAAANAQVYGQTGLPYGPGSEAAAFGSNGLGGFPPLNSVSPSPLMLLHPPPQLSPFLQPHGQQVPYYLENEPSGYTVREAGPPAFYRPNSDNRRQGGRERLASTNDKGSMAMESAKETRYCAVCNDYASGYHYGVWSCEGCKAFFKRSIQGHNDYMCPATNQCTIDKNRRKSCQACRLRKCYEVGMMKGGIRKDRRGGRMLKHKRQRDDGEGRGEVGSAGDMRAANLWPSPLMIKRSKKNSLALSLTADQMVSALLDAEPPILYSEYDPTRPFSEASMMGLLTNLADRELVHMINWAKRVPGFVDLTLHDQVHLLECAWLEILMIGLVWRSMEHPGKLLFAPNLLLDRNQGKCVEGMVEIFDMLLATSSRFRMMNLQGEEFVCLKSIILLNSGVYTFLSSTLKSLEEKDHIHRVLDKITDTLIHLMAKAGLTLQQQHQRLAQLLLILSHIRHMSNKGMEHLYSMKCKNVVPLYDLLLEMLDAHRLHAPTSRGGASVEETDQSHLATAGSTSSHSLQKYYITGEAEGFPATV
Excerpt: Values are the mean±SD of a single experiment, with similar results seen in a separate repeat experiment, both in replicates of N=2.
Constructs, Transfection, and Luciferase Assays. Constructs were purchased or gifts: constitutive active MEK4EE (MAP2K4-EE; residues 37-399; Addgene, plasmid 14813), pRL-TK-Renilla luciferase (Promega), pCMV-β-galactosidase (Agilent Technologies), and pcDNA-GFP (Invitrogen), HSP90β was from Pawel Bieganowski (Mossakowski Medical Research Center PAS, Poland) (Zurawska, A. et al., Biochim Biophys Acta 1803, 575-83 (2010)), estrogen responsive promoter-luciferase reporter construct, pERE-Luc, was from Craig Jordan (Georgetown University) (Catherino, W. H. et al., Cancer Lett 92, 39-47 (1995)), human CDC37 in pET15b plasmid was from Avrom Caplan (City College of New York) (Rao, J. et al., J Biol Chem 276, 5814-20 (2001)). siRNA used Dharmacon ON-Targetplus SMARTpool™ siRNA directed against HSP90β (cat #L-005187-00-0010) non-targeting siRNA (cat #D-001810-10-05), used TransIT-LT1 Transfection Reagent (Mirus Bio LLC), or with Dharmafect Duo (Thermo Scientific, Lafayette, Colo.) for co-delivery of plasmid. Luciferase assays were performed as described (Breen, M. J. et al., PLoS One 8, e72407 (2013)).
Luciferase activity was measured, normalized to that of β-gal, and values expressed as the percent of untreated vector control cells.

O=C1c2ccccc2OCC1c1ccc(F)cc1 (racemic) [KBU2046, (±)-3(4-fluorophenyl)chroman-4-one]
changes in protein phosphorylation [1]: induced a single change that met the pre-specified criteria
inhibition of MKK4 kinase activity (MKK4): does not inhibit MKK4
activation of the estrogen receptor (estrogen receptor (ER)): does not activate the estrogen receptor (ER)
